In US7928098B2, “Therapeutic and/or preventive agents for a sleep disorder” (Kyowa Hakko Kirin Co., Ltd., priority 2005, dated 2011):

In the case of `Cc1ccc(C(=O)c2sc(NC(=O)c3ccncc3)nc2-c2ccco2)cn1` [Compound 220, N-[4-(2-Furyl)-5-(2-methylpyridin-5-ylcarbonyl)thiazol-2-yl]pyridine-4-carboxamide], the melting point is reported as 230 to 232 °C (dec.). `O=C(Nc1nc(-c2ccco2)c(C(=O)C2CCOCC2)s1)c1cccnc1` [Compound 406, N-[4-(2-Furyl)-5-(tetrahydropyran-4-ylcarbonyl)thiazol-2-yl]pyridine-3-carboxamide] showed a melting point of 209 to 212 °C. Work on `Cc1ccoc1C(=O)Nc1nc(-c2ccco2)c(C(=O)c2ccccn2)s1` [Compound 145, N-[4-(2-Furyl)-5-(pyridin-2-ylcarbonyl)thiazol-2-yl]-3-methylfuran-2-carboxamide] yielded a melting point of 174 to 176 °C. In the case of `Cc1cncc(C(=O)Nc2nc(-c3ccco3)c(C(=O)C3CCOCC3)s2)c1` [Compound 411, N-[4-(2-Furyl)-5-(tetrahydropyran-4-ylcarbonyl)thiazol-2-yl]-5-methylpyridine-3-carboxamide], the melting point is reported as 239 to 243 °C. `O=C(Nc1nc(-c2ccco2)c(C(=O)c2ccccc2)s1)c1ccnnc1` [Compound 61, N-[5-Benzoyl-4-(2-furyl)thiazol-2-yl]pyridazine-4-carboxamide] gave a melting point of 225 to 248 °C. In the case of `O=C(CN1CCC(O)CC1)Nc1nc(-c2ccco2)c(C(=O)C2CCOCC2)s1` [Compound 448, N-[4-(2-Furyl)-5-(tetrahydropyran-4-ylcarbonyl)thiazol-2-yl]-2-(4-hydroxypiperidino)acetamide], the melting point is reported as 178 to 180 °C. For `COc1ccc(C(=O)Nc2nc(-c3ccco3)c(C(=O)C3CCOCC3)s2)cc1` [Compound 368, N-[4-(2-Furyl)-5-(tetrahydropyran-4-ylcarbonyl)thiazol-2-yl]-4-methoxybenzamide], the melting point was 184 to 188 °C. With `COC1CCN(CC(=O)Nc2nc(-c3ccco3)c(C(=O)c3ccccn3)s2)CC1.Cl` the melting point was 220 to 232 °C (dec.). `Cn1ccc(C(=O)c2sc(NC(=O)c3ccncc3)nc2-c2ccco2)c1` [Compound 261, N-[4-(2-Furyl)-5-(1-methylpyrrol-3-ylcarbonyl)thiazol-2-yl]pyridine-4-carboxamide] showed a melting point of 209 to 211 °C. In the case of `O=C(CN1CCC(N2CCOCC2)CC1)Nc1nc(-c2ccco2)c(C(=O)c2ccccn2)s1` [Compound 179, N-[4-(2-Furyl)-5-(pyridin-2-ylcarbonyl)thiazol-2-yl]-2-(4-morpholinopiperidino)acetamide], the melting point is reported as 149 to 150 °C. For `O=C(Nc1nc(-c2ccco2)c(C(=O)c2ccc(N3CCC(O)CC3)nc2)s1)c1ccncc1` [Compound 233, N-{4-(2-Furyl)-5-[2-(4-hydroxypiperidino)pyridin-5-ylcarbonyl]thiazol-2-yl}pyridine-4-carboxamide], the melting point was 264 to 268 °C. In the case of `O=C(Nc1nc(-c2ccco2)c(C(=O)C2CCOCC2)s1)c1ccccc1OC(F)(F)F` [Compound 380, N-[4-(2-Furyl)-5-(tetrahydropyran-4-ylcarbonyl)thiazol-2-yl]-2-(trifluoromethoxy)benzamide], the melting point is reported as 131 to 134 °C. In the case of `Cn1ccc(C(=O)Nc2nc(-c3ccco3)c(C(=O)c3ccccn3)s2)cc1=O` [Compound 141, N-[4-(2-Furyl)-5-(pyridin-2-ylcarbonyl)thiazol-2-yl]-1-methyl-2-oxo-1,2-dihydropyridine-4-carboxamide], the melting point is reported as 280 to 285 °C. Work on `CC1CCN(CC(=O)Nc2nc(-c3ccco3)c(C(=O)c3ccccn3)s2)CC1` [Compound 174, N-[4-(2-Furyl)-5-(pyridin-2-ylcarbonyl)thiazol-2-yl]-2-(4-methylpiperidino)acetamide] yielded a melting point of 104 to 106 °C. Work on `O=C(Nc1nc(-c2ccco2)c(C(=O)c2ccccn2)s1)c1ccc2c(c1)OCCO2` [Compound 118, N-[4-(2-Furyl)-5-(pyridin-2-ylcarbonyl)thiazol-2-yl]-1,4-benzodioxane-6-carboxamide] yielded a melting point of 189 to 191 °C. In the case of `O=C(Cc1ccccc1)Nc1nc(-c2ccco2)c(C(=O)C2CCOCC2)s1` [Compound 431, N-[4-(2-Furyl)-5-(tetrahydropyran-4-ylcarbonyl)thiazol-2-yl]-2-phenylacetamide], the melting point is reported as 140 to 142 °C. For `CCn1cc(C(=O)Nc2nc(-c3ccco3)c(C(=O)c3ccccc3)s2)ccc1=O` [Compound 59, N-[5-Benzoyl-4-(2-furyl)thiazol-2-yl]-1-ethyl-2-oxo-1,2-dihydropyridine-5-carboxamide], the melting point was 109 to 114 °C. `COCCCNC(=O)Nc1nc(-c2ccco2)c(C(=O)c2ccccn2)s1` [Compound 169, N-[4-(2-Furyl)-5-(pyridin-2-ylcarbonyl)thiazol-2-yl]-N′-(3-methoxypropyl)urea] gave a melting point of 169 to 170 °C. For `Cc1nc(C(=O)c2sc(NC(=O)c3ccncc3)nc2-c2ccco2)sc1C` [Compound 258, N-[5-(4,5-Dimethylthiazol-2-ylcarbonyl)-4-(2-furyl)thiazol-2-yl]pyridine-4-carboxamide], the melting point was 270 to 272 °C (dec.). `O=C(c1sc(NC(=O)N2CCOCC2)nc1-c1ccco1)C1CCCC1` [Compound 340, N-[5-(Cyclopentylcarbonyl)-4-(2-furyl)thiazol-2-yl]morpholine-4-carboxamide] gave a melting point of 108 to 110 °C. `CCN1CCN(CC(=O)Nc2nc(-c3ccco3)c(C(=O)c3ccccn3)s2)CC1` [Compound 181, 2-(4-Ethylpiperazin-1-yl)-N-[4-(2-furyl)-5-(pyridin-2-ylcarbonyl)thiazol-2-yl]acetamide] gave a melting point of 142 to 144 °C. `Cc1cc(C(=O)Nc2nc(-c3ccco3)c(C(=O)c3ccnc(C)c3)s2)ccn1` [Compound 240, N-[4-(2-Furyl)-5-(2-methylpyridin-4-ylcarbonyl)thiazol-2-yl]-2-methylpyridine-4-carboxamide] gave a melting point of 205 to 229 °C. In the case of `CCn1ccc(C(=O)c2sc(NC(=O)c3ccncc3)nc2-c2ccco2)c1` [Compound 262, N-[5-(1-Ethylpyrrol-3-ylcarbonyl)-4-(2-furyl)thiazol-2-yl]pyridine-4-carboxamide], the melting point is reported as 127 to 134 °C. Compound `COCC(=O)c1sc(NC(=O)c2ccc(F)cc2)nc1-c1ccco1` [Compound 311, 4-Fluoro-N-[4-(2-furyl)-5-(methoxyacetyl)thiazol-2-yl]benzamide] has a melting point of 166 to 167 °C. `O=C(CN1CCN(c2ccccn2)CC1)Nc1nc(-c2ccco2)c(C(=O)c2ccccn2)s1` [Compound 185, N-[4-(2-Furyl)-5-(pyridin-2-ylcarbonyl)thiazol-2-yl]-2-[4-(2-pyridyl)piperazin-1-yl]acetamide] showed a melting point of 215 to 218 °C. `O=C(Nc1nc(-c2ccco2)c(C(=O)C2CCOCC2)s1)c1cccc(OC(F)(F)F)c1` [Compound 381, N-[4-(2-Furyl)-5-(tetrahydropyran-4-ylcarbonyl)thiazol-2-yl]-3-(trifluoromethoxy)benzamide] showed a melting point of 197 to 198 °C. In the case of `O=C(Nc1nc(-c2ccco2)c(C(=O)c2ccccn2)s1)c1ccc2snnc2c1` [Compound 152, N-[4-(2-Furyl)-5-(pyridin-2-ylcarbonyl)thiazol-2-yl]-1,2,3-benzothiadiazole-5-carboxamide], the melting point is reported as 213 to 218 °C. In the case of `O=C(Nc1nc(-c2ccco2)c(C(=O)C2CCOCC2)s1)c1cc(F)ccc1F` [Compound 396, 2,5-Difluoro-N-[4-(2-furyl)-5-(tetrahydropyran-4-ylcarbonyl)thiazol-2-yl]benzamide], the melting point is reported as 172 to 174 °C. Compound `O=C1CCC(C(=O)c2sc(NC(=O)c3ccco3)nc2-c2ccco2)CC1` [Compound 355, N-[4-(2-Furyl)-5-(4-oxocyclohexylcarbonyl)thiazol-2-yl]-furan-2-carboxamide] has a melting point of 232 to 235 °C. With `O=C(Nc1nc(-c2ccco2)c(C(=O)c2cnccn2)s1)c1ccncc1` [Compound 281, N-[4-(2-Furyl)-5-(pyrazin-2-ylcarbonyl)thiazol-2-yl]pyridine-4-carboxamide] the melting point was over 300 °C. With `CC(C)(O)c1cc2cc(C(=O)Nc3nc(-c4ccco4)c(C(=O)c4ccccn4)s3)ccc2o1` [Compound 155, N-[4-(2-Furyl)-5-(pyridin-2-ylcarbonyl)thiazol-2-yl]-2-(1-hydroxy-1-methylethyl)-1-benzofuran-5-carboxamide] the melting point was 230 to 231 °C. In the case of `O=C(Nc1nc(-c2ccco2)c(C(=O)C2CCOCC2)s1)c1ccccc1Cl` [Compound 374, 2-Chloro-N-[4-(2-furyl)-5-(tetrahydropyran-4-ylcarbonyl)-thiazol-2-yl]benzamide], the melting point is reported as 160 to 162 °C. `CC(C)NC(=O)Nc1nc(-c2ccco2)c(C(=O)c2ccccn2)s1` [Compound 166, N-[4-(2-Furyl)-5-(pyridin-2-ylcarbonyl)thiazol-2-yl]-N′-isopropylurea] showed a melting point of 182 to 186 °C. `CC(C)(C)C(=O)c1sc(NC(=O)c2ccncc2)nc1-c1ccco1` [Compound 306, N-[4-(2-Furyl)-5-pivaloylthiazol-2-yl]pyridine-4-carboxamide] showed a melting point of 240 to 245 °C. `O=C(Nc1nc(-c2ccco2)c(C(=O)C2CCOCC2)s1)c1ccc(CN2CCC(O)CC2)cc1` [Compound 386, N-[4-(2-Furyl)-5-(tetrahydropyran-4-ylcarbonyl)thiazol-2-yl]-4-(4-hydroxypiperidinomethyl)benzamide] showed a melting point of 194 to 195 °C. In the case of `Cc1ncccc1C(=O)Nc1nc(-c2ccco2)c(C(=O)c2ccccn2)s1` [Compound 129, N-[4-(2-Furyl)-5-(pyridin-2-ylcarbonyl)thiazol-2-yl]-2-methylpyridine-3-carboxamide], the melting point is reported as 186 to 187 °C. With `Cc1cc(C(=O)c2sc(NC(=O)c3ccncc3)nc2-c2ccco2)ccn1` [Compound 239, N-[4-(2-Furyl)-5-(2-methylpyridin-4-ylcarbonyl)thiazol-2-yl]pyridine-4-carboxamide] the melting point was 223 to 225 °C. For `CC(C)C(=O)c1sc(NC(=O)c2ccncc2)nc1-c1ccco1` [Compound 300, N-[4-(2-Furyl)-5-isobutyrylthiazol-2-yl]pyridine-4-carboxamide], the melting point was 179 to 182 °C. For `CCCC(=O)c1sc(NC(=O)c2ccncc2)nc1-c1ccco1` [Compound 289, N-[5-Butyryl-4-(2-furyl)thiazol-2-yl]pyridine-4-carboxamide], the melting point was 191 to 194 °C.
